Source: patent publication US7803822B2, “Triazole derivative and use thereof” (Takeda Pharmaceutical Company Limited, priority 2005, dated 2010)

These compounds were tested against T1, human PAR-1 (Homo sapiens, UniProt P25116) (assay: Evaluation of PAR-1 antagonistic action by intracellular calcium concentration variation assay (FLIPR)). Details: human PAR-1-expressing CHO cells, agonist peptide SFLLRN-NH2 final concentration 0.3 nM, Fluo-3AM.
T1 construct: expressed in transfected cells; host or cells: CHO-K1 (transformant flag/trn/CHO-K1)
T1 sequence (P25116 22-425): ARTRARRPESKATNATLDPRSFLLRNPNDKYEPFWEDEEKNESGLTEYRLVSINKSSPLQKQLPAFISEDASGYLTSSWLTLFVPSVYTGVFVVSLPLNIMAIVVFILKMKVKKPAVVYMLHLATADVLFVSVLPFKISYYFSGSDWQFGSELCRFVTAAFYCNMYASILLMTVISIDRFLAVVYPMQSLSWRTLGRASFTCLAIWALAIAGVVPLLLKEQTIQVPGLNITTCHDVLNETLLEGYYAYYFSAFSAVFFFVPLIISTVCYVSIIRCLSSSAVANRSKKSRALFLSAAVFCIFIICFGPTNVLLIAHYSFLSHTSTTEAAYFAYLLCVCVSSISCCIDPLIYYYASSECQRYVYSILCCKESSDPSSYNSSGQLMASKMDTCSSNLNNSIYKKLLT
Format: cell-based
Experimental: Evaluation of PAR-1 Antagonistic Action of Compound by Intracellular Calcium Concentration Variation Assay
Human PAR-1-expressing cells was plated at 3×10^4 cells/well on a 96 well clear bottom plate (Corning 3904 type) and cultured for 16-24 hr. The medium was removed from the wells of the plate, measurement buffer (50 μL, 115 mM NaCl, 5.4 mM KCl, 1.8 mM CaCl2, 0.8 mM MgCl2, 13.8 mM D-glucose, 0.1% BSA, 20 mM HEPES, pH 7.4) containing 2.5 μg/mL of Fluo-3AM (manufactured by Dojindo Laboratories), 0.08% Pluronic F-127 and 2.5 mM Probenecid was added to the cells and the mixture was reacted at 37° C. for 1 hr. The cells were washed twice with the measurement buffer. After addition of the measurement buffer (100 μL), a measurement buffer (50 μL) containing a test compound was added, and the mixture was stood still for 10 min. The plate was moved to a fluorometry image-plate reader (FLIPR-1, manufactured by Molecular Devices). […] The intracellular calcium concentration was measured by FLIPR.
`CCCc1c(C(=O)NC2CC2)nnn1-c1ccc(NC(=O)NC)cc1` [Example 31, N-cyclopropyl-1-(4-{[(methylamino)carbonyl]amino}phenyl)-5-propyl-1H-1,2,3-triazole-4-carboxamide] showed an IC50 of 3700 nM. `CCNC(=O)c1ccc(-n2nnc(C(=O)NC3CC3)c2CCCOc2ccc(OC(F)(F)F)cc2)cc1` [Example 522, N-cyclopropyl-1-{4-[(ethylamino)carbonyl]phenyl}-5-{3-[4-(trifluoromethoxy)phenoxy]propyl}-1H-1,2,3-triazole-4-carboxamide] was tested, and the IC50 was 330 nM. In the case of `CCCc1c(C(=O)NC2CC2)nnn1-c1ccc(C(=O)NC(C)C)cc1` [Example 49, N-cyclopropyl-1-{4-[(isopropylamino)carbonyl]phenyl}-5-propyl-1H-1,2,3-triazole-4-carboxamide], the IC50 is reported as 3500 nM. With `CCCc1c(C(=O)NC2CC2)nnn1-c1ccc(C(=O)NC2CCCC2)cc1` [Example 54, 1-{4-[(cyclopentylamino)carbonyl]phenyl}-N-cyclopropyl-5-propyl-1H-1,2,3-triazole-4-carboxamide] the IC50 was 1600 nM. With `CCNC(=O)c1ccc(-n2nnc(C(=O)NC3CC3)c2COc2ccc(Br)cc2)cc1` [Example 116, 5-[(4-bromophenoxy)methyl]-N-cyclopropyl-1-{4-[(ethylamino)carbonyl]phenyl}-1H-1,2,3-triazole-4-carboxamide] the IC50 was 750 nM. `CCNC(=O)c1ccc(-n2nnc(C(=O)NC3CC3)c2CC2CCCC2)cc1` [Example 103, 5-(cyclopentylmethyl)-N-cyclopropyl-1-{4-[(ethylamino)carbonyl]phenyl}-1H-1,2,3-triazole-4-carboxamide] was tested, and the IC50 was 780 nM. Compound `CCNC(=O)c1ccc(-n2nnc(C(=O)NC3CC3)c2CSc2ccccc2)cc1` [Example 130, N-cyclopropyl-1-{4-[(ethylamino)carbonyl]phenyl}-5-[(phenylthio)methyl]-1H-1,2,3-triazole-4-carboxamide] has an IC50 of 480 nM. Work on `C/C=C/c1c(C(=O)NC2CC2)nnn1-c1ccc(C(=O)NCC(F)(F)F)cc1` [Example 399, N-cyclopropyl-5-[(1E)-prop-1-en-1-yl]-1-(4-{[(2,2,2-trifluoroethyl)amino]carbonyl}phenyl)-1H-1,2,3-triazole-4-carboxamide] yielded an IC50 of 1400 nM. With `CCCc1c(C(=O)N2CCc3c([nH]c4ccccc34)C2)nnn1-c1ccc(C(=O)NCC)cc1` [Example 85, N-ethyl-4-[5-propyl-4-(1,3,4,9-tetrahydro-2H-β-carbolin-2-ylcarbonyl)-1H-1,2,3-triazol-1-yl]benzamide] the IC50 was 1900 nM. Work on `CCNC(=O)c1ccc(-n2nnc(C(=O)NC3CC3)c2CC(C)C)cc1` [Example 93, N-cyclopropyl-1-{4-[(ethylamino)carbonyl]phenyl}-5-isobutyl-1H-1,2,3-triazole-4-carboxamide] yielded an IC50 of 1200 nM. `CCNC(=O)c1ccc(-n2nnc(C(=O)NC3CC3)c2CCCCCc2ccccc2)cc1` [Example 101, N-cyclopropyl-1-{4-[(ethylamino)carbonyl]phenyl}-5-(5-phenylpentyl)-1H-1,2,3-triazole-4-carboxamide] gave an IC50 of 820 nM. With `CCCc1c(C(=O)NC2CC2)nnn1-c1ccc(C(=O)NCC(F)(F)F)cc1` [Example 46, N-cyclopropyl-5-propyl-1-(4-{[(2,2,2-trifluoroethyl)amino]carbonyl}phenyl)-1H-1,2,3-triazole-4-carboxamide] the IC50 was 950 nM. In the case of `CCCCc1c(C(=O)NC2CC2)nnn1-c1ccc(C(=O)NCC)cc1` [Example 90, 5-butyl-N-cyclopropyl-1-{4-[(ethylamino)carbonyl]phenyl}-1H-1,2,3-triazole-4-carboxamide], the IC50 is reported as 2400 nM. With `CCNC(=O)c1ccc(-n2nnc(C(=O)NC3CC3)c2COc2cccc(F)c2)cc1` [Example 414, N-cyclopropyl-1-{4-[(ethylamino)carbonyl]phenyl}-5-[(3-fluorophenoxy)methyl]-1H-1,2,3-triazole-4-carboxamide] the IC50 was 190 nM. Compound `CCCc1c(C(=O)NC2CC2)nnn1-c1ccc(C(=O)NCC)cc1Cl` [Example 72, 1-{2-chloro-4-[(ethylamino)carbonyl]phenyl}-N-cyclopropyl-5-propyl-1H-1,2,3-triazole-4-carboxamide] has an IC50 of 3400 nM. `CCNC(=O)c1ccc(-n2nnc(C(=O)NC3CC3)c2Cc2ccccc2)cc1` [Example 99, 5-benzyl-N-cyclopropyl-1-{4-[(ethylamino)carbonyl]phenyl}-1H-1,2,3-triazole-4-carboxamide] gave an IC50 of 1300 nM. Compound `CCCc1c(C(=O)NC2CC2)nnn1-c1ccc(NC(=O)CC(F)(F)F)cc1` [Example 25, N-cyclopropyl-5-propyl-1-{4-[(3,3,3-trifluoropropanoyl)amino]phenyl}-1H-1,2,3-triazole-4-carboxamide] has an IC50 of 94 nM. Compound `CCNC(=O)c1ccc(-n2nnc(C(=O)NC3CC3)c2CC2CCCCC2)cc1` [Example 102, 5-(cyclohexylmethyl)-N-cyclopropyl-1-{4-[(ethylamino)carbonyl]phenyl}-1H-1,2,3-triazole-4-carboxamide] has an IC50 of 1800 nM. Compound `CCCc1c(C(=O)NC2CC2)nnn1-c1ccc(NC(=O)C2CC2)cc1` [Example 4, N-cyclopropyl-1-{4-[(cyclopropylcarbonyl)amino]phenyl}-5-propyl-1H-1,2,3-triazole-4-carboxamide] has an IC50 of 550 nM. Work on `CCCc1c(C(=O)NC2CC2)nnn1-c1ccc(NC(=O)C(F)(F)F)cc1` [Example 16, N-cyclopropyl-5-propyl-1-{4-[(trifluoroacetyl)amino]phenyl}-1H-1,2,3-triazole-4-carboxamide] yielded an IC50 of 250 nM. In the case of `CCNC(=O)c1ccc(-n2nnc(C(=O)NC3CC3)c2CCCO)cc1` [Example 113, N-cyclopropyl-1-{4-[(ethylamino)carbonyl]phenyl}-5-(3-hydroxypropyl)-1H-1,2,3-triazole-4-carboxamide], the IC50 is reported as 3100 nM. Compound `CCCNC(=O)c1ccc(-n2nnc(C(=O)NC3CC3)c2CCC)cc1` [Example 55, N-cyclopropyl-5-propyl-1-{4-[(propylamino)carbonyl]phenyl}-1H-1,2,3-triazole-4-carboxamide] has an IC50 of 3600 nM. With `CCCc1c(C(=O)NC2CC2)nnn1-c1ccc(C(=O)NCC(C)C)cc1` [Example 52, N-cyclopropyl-1-{4-[(isobutylamino)carbonyl]phenyl}-5-propyl-1H-1,2,3-triazole-4-carboxamide] the IC50 was 1400 nM. In the case of `CCNC(=O)c1ccc(-n2nnc(C(=O)NC3CC3)c2CCCOCc2ccccc2)cc1` [Example 91, 5-[3-(benzyloxy)propyl]-N-cyclopropyl-1-{4-[(ethylamino)carbonyl]phenyl}-1H-1,2,3-triazole-4-carboxamide], the IC50 is reported as 2200 nM. With `CCCc1c(C(=O)NCc2ccc3c(c2)OCO3)nnn1-c1ccc(C(=O)NCC)cc1` [Example 86, N-(1,3-benzodioxol-5-ylmethyl)-1-{4-[(ethylamino)carbonyl]phenyl}-5-propyl-1H-1,2,3-triazole-4-carboxamide] the IC50 was 620 nM. With `CCNC(=O)c1ccc(-n2nnc(C(=O)NC3CC3)c2COc2ccc(OC)cc2)cc1` [Example 122, N-cyclopropyl-1-{4-[(ethylamino)carbonyl]phenyl}-5-[(4-methoxyphenoxy)methyl]-1H-1,2,3-triazole-4-carboxamide] the IC50 was 3300 nM. `CCNC(=O)c1ccc(-n2nnc(C(=O)NC3CC3)c2CC2CC2)cc1` [Example 96, N-cyclopropyl-5-(cyclopropylmethyl)-1-{4-[(ethylamino)carbonyl]phenyl}-1H-1,2,3-triazole-4-carboxamide] gave an IC50 of 1200 nM. For `CCCc1c(C(=O)NC2CCCc3ccccc32)nnn1-c1ccc(C(=O)NCC)cc1` (centres unmarked) [Example 89, 1-{4-[(ethylamino)carbonyl]phenyl}-5-propyl-N-(1,2,3,4-tetrahydronaphthalen-1-yl)-1H-1,2,3-triazole-4-carboxamide], the IC50 was 670 nM. For `CCCc1c(C(=O)NC2CC2)nnn1-c1ccc(NC(=O)C(C)C)cc1` [Example 3, N-cyclopropyl-1-[4-(isobutyrylamino)phenyl]-5-propyl-1H-1,2,3-triazole-4-carboxamide], the IC50 was 520 nM. `CCNC(=O)c1ccc(-n2nnc(C(=O)NC3CC3)c2CCCCF)cc1` [Example 108, N-cyclopropyl-1-{4-[(ethylamino)carbonyl]phenyl}-5-(4-fluorobutyl)-1H-1,2,3-triazole-4-carboxamide] was tested, and the IC50 was 620 nM. `CCCc1c(C(=O)NCCc2c[nH]c3ccc(OC)cc23)nnn1-c1ccc(C(=O)NCC)cc1` [Example 87, 1-{4-[(ethylamino)carbonyl]phenyl}-N-[2-(5-methoxy-1H-indol-3-yl)ethyl]-5-propyl-1H-1,2,3-triazole-4-carboxamide] showed an IC50 of 280 nM. Work on `CCNC(=O)c1ccc(-n2nnc(C(=O)NC3CC3)c2/C=C/c2ccccc2)cc1` [Example 106, N-cyclopropyl-1-{4-[(ethylamino)carbonyl]phenyl}-5-[(E)-2-phenylvinyl]-1H-1,2,3-triazole-4-carboxamide] yielded an IC50 of 400 nM.
